Assay results from patent US12458021B2, “Microbiocidal derivatives” (SYNGENTA CROP PROTECTION AG, priority 2019, dated 2025).

Legend:
[1] = system: Magnaporthe grisea (Pyricularia oryzae); assay: whole plant or invertebrate; type: in vivo; conditions: foliar, read-out: control of Magnaporthe grisea (percent disease control compared to untreated)
[2] = system: Mycosphaerella arachidis (Cercospora arachidicola); assay: Mycosphaerella arachidis (Cercospora arachidicola) / liquid culture (early leaf spot); type: cell-based; conditions: PDB potato dextrose broth, 24° C., 4-5 days after application, read-out: control of Mycosphaerella arachidis (inhibition of growth, photometric)
Method: Example B8: Mycosphaerella arachidis (Cercospora arachidicola)/Liquid Culture (Early Leaf Spot) Conidia of the fungus from cryogenic storage are directly mixed into nutrient broth (PDB potato dextrose broth). After placing a (DMSO) solution of test compound into a microtiter plate (96-well format), the nutrient broth containing the fungal spores is added. The test plates are incubated at 24° C. and the inhibition of growth is determined photometrically 4-5 days after application. […] […]-180.

[3] = system: Puccinia recondita f. sp. tritici; assay: Puccinia recondita f. sp. tritici / wheat / leaf disc preventative (brown rust); type: in vivo; conditions: foliar, wheat leaf segments cv. Kanzler, inoculated 1 day after application, assessed 7-9 days after application, read-out: control of Puccinia recondita f. sp. tritici, preventative (percent disease control compared to untreated)
How it was run: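 Wheat leaf segments (cv. Kanzler) on agar were sprayed with formulated compound, then inoculated with spores 1 day later. Segments were incubated at 19 °C, 75% rh with 12 h light/dark. Percent disease control versus untreated was scored 7–9 days after application.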

[4] = system: Glomerella lagenarium (Colletotrichum lagenarium); assay: Glomerella lagenarium (Colletotrichum lagenarium) / liquid culture (anthracnose); type: cell-based; conditions: Colletotrichum orbiculare, PDB potato dextrose broth, 24° C., 3-4 days after application, read-out: control of Glomerella lagenarium (inhibition of growth, photometric)
How it was run: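 Conidia from cryogenic storage suspended in potato dextrose broth and added to DMSO compound solution in plates. Incubated at 24° C; growth inhibition read photometrically 3-4 days after application.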

[5] = system: Blumeria graminis f. sp. tritici (Erysiphe graminis f. sp. tritici); assay: Blumeria graminis f. sp. tritici / wheat / leaf disc preventative (powdery mildew on wheat); type: in vivo; conditions: foliar, wheat leaf segments cv. Kanzler, inoculated 1 day after application, assessed 6-8 days after application, read-out: control of Blumeria graminis f. sp. tritici (percent disease control compared to untreated)
Excerpt: Example B4: Blumeria graminis f. sp. tritici (Erysiphe graminis f. sp. tritici)/Wheat/Leaf Disc Preventative (Powdery Mildew on Wheat) Wheat leaf segments cv. Kanzler are placed on agar in a multiwell plate (24-well format) and sprayed with the formulated test compound diluted in water. The leaf disks are inoculated by shaking powdery mildew infected plants above the test plates 1 day after application. […] […]-192.

Alternaria solani = Alternaria solani / tomato / leaf disc (early blight); type: in vivo; conditions: foliar, tomato leaf disks cv. Baby, inoculated 2 days after application, assessed 5-7 days after application, read-out: control of Alternaria solani (percent disease control compared to untreated)
Method: Example B1: Alternaria solani/Tomato/Leaf Disc (Early Blight) Tomato leaf disks cv. Baby are placed on agar in multiwell plates (24-well format) and sprayed with the formulated test compound diluted in water. The leaf disks are inoculated with a spore suspension of the fungus 2 days after application. The inoculated leaf disks are incubated at 23° C./21° C. […] […]-185.

[6] = system: Phaeosphaeria nodorum (Septoria nodorum); assay: Phaeosphaeria nodorum (Septoria nodorum) / wheat / leaf disc preventative (glume blotch); type: in vivo; conditions: Parastagonospora nodorum, foliar, wheat leaf segments cv. Kanzler, inoculated 2 days after application, assessed 5-7 days after application, read-out: control of Phaeosphaeria nodorum (percent disease control compared to untreated)
Method: Example B6: Phaeosphaeria nodorum (Septoria nodorum)/Wheat/Leaf Disc Preventative (Glume Blotch) Wheat leaf segments cv. Kanzler are placed on agar in a multiwell plate (24-well format) and sprayed with the formulated test compound diluted in water. The leaf disks are inoculated with a spore suspension of the fungus 2 days after application. The inoculated test leaf disks are incubated at 20° C. and 75% rh under a light regime of 12 h light/12 h darkness in a climate cabinet and the activity of a compound is assessed as percent disease control compared to untreated when an appropriate level of disease damage appears in untreated check leaf disks (5-7 days after application). […] […]-190.

[7] = system: Mycosphaerella graminicola (Septoria tritici); assay: Mycosphaerella graminicola (Septoria tritici) / liquid culture (Septoria blotch); type: cell-based; conditions: Zymoseptoria tritici, PDB potato dextrose broth, 24° C., 4-5 days after application, read-out: control of Mycosphaerella graminicola (inhibition of growth, photometric)
How it was run: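 Conidia from cryogenic storage were mixed into potato dextrose broth and added to test compound in DMSO. Plates were incubated at 24° C, and growth inhibition was read photometrically 4-5 days after application.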

[8] = system: Monographella nivalis (Microdochium nivale); assay: Monographella nivalis (Microdochium nivale) / liquid culture (foot rot cereals); type: cell-based; conditions: PDB potato dextrose broth, 24° C., 4-5 days after application, read-out: control of Monographella nivalis (inhibition of growth, photometric)
How it was run: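 Cryostored M. nivalis conidia mixed into potato dextrose broth and added to 96-well plates holding test compound in DMSO. Incubated at 24° C; growth inhibition read photometrically 4-5 days after application.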

Pyrenophora teres = Pyrenophora teres / barley / leaf disc preventative (net blotch); type: in vivo; conditions: foliar, barley leaf segments cv. Hasso, inoculated 2 days after application, assessed 5-7 days after application, read-out: control of Pyrenophora teres (disease control compared to untreated)
Method: Example B13: Pyrenophora teres/Barley/Leaf Disc Preventative (Net Blotch) Barley leaf segments cv. Hasso are placed on agar in a multiwell plate (24-well format) and sprayed with the formulated test compound diluted in water. The leaf segments are inoculated with a spore suspension of the fungus 2 days after application. The inoculated leaf segments are incubated at 20° C. and 65% rh under a light regime of 12 h light/12 h darkness in a climate cabinet and the activity of a compound is assessed as disease control compared to untreated when an appropriate level of disease damage appears in untreated check leaf segments (5-7 days after application). […] […]-185.

[9] = system: Botryotinia fuckeliana (Botrytis cinerea); assay: Botryotinia fuckeliana (Botrytis cinerea) / liquid culture (gray mould); type: cell-based; conditions: Vogels broth, 24° C., 3-4 days after application, read-out: control of Botryotinia fuckeliana (inhibition of growth, photometric)
Method: Example B2: Botryotinia fuckeliana (Botrytis cinerea)/Liquid Culture (Gray Mould) Conidia of the fungus from cryogenic storage are directly mixed into nutrient broth (Vogels broth). After placing a (DMSO) solution of test compound into a microtiter plate (96-well format), the nutrient broth containing the fungal spores is added. The test plates are incubated at 24° C. and the inhibition of growth is determined photometrically 3-4 days after application. […] […]-190.

COc1ccc(Nc2cc(F)cc(F)c2)nc1C(=O)NCC(C)(C)C [Compound P-22, 6-(3,5-difluoroanilino)-N-(2,2-dimethylpropyl)-3-methoxy-pyridine-2-carboxamide]
≥ 80%: pest or weed control at 200 ppm [1] | inhibition at 20 ppm [2] | pest or weed control at 200 ppm [3] | inhibition at 20 ppm [4] | pest or weed control at 200 ppm [5] | pest or weed control at 200 ppm (Alternaria solani) | pest or weed control at 200 ppm [6] | inhibition at 20 ppm [7] | inhibition at 20 ppm [8] | pest or weed control at 200 ppm (Pyrenophora teres)

COc1ccc(Nc2cc(F)cc(F)c2)nc1C(=O)NCc1cc(F)cc(F)c1 [Compound P-26, 6-(3,5-difluoroanilino)-N-[(3,5-difluorophenyl)methyl]-3-methoxy-pyridine-2-carboxamide]
≥ 80%: pest or weed control at 200 ppm [1] | inhibition at 20 ppm [2] | pest or weed control at 200 ppm [3] | inhibition at 20 ppm [4] | pest or weed control at 200 ppm [5] | pest or weed control at 200 ppm [6] | inhibition at 20 ppm [7] | inhibition at 20 ppm [8] | pest or weed control at 200 ppm (Pyrenophora teres)

COc1ccc(Nc2cc(F)cc(F)c2)nc1C(=O)NCCOc1ccc(F)cc1 [Compound P-27, 6-(3,5-difluoroanilino)-N-[2-(4-fluorophenoxy)ethyl]-3-methoxy-pyridine-2-carboxamide]
≥ 80%: pest or weed control at 200 ppm [1] | inhibition at 20 ppm [2] | pest or weed control at 200 ppm [3] | inhibition at 20 ppm [4] | pest or weed control at 200 ppm [6] | inhibition at 20 ppm [7] | inhibition at 20 ppm [8]

COc1ccc(NCC(O)CO)nc1C(=O)NCC(C)(C)C (stereo not drawn) [Compound P-42, 6-(2,3-dihydroxypropylamino)-N-(2,2-dimethylpropyl)-3-methoxy-pyridine-2-carboxamide]
≥ 80%: inhibition at 20 ppm [9] | inhibition at 20 ppm [4]

COc1ccc(Nc2cc(F)cc(F)c2)nc1C(=O)NC1CCC1Oc1ccc(F)cc1 (stereo not drawn) [Compound P-45, 6-(3,5-difluoroanilino)-N-[2-(4-fluorophenoxy)cyclobutyl]-3-methoxy-pyridine-2-carboxamide]
≥ 80%: pest or weed control at 200 ppm [1] | inhibition at 20 ppm [2] | pest or weed control at 200 ppm [3] | inhibition at 20 ppm [4] | pest or weed control at 200 ppm [5] | pest or weed control at 200 ppm (Alternaria solani) | pest or weed control at 200 ppm [6] | inhibition at 20 ppm [7] | inhibition at 20 ppm [8] | pest or weed control at 200 ppm (Pyrenophora teres)

COc1ccc(Nc2cc(F)cc(F)c2)nc1C(=O)NC1CCc2cc(C(F)(F)F)ccc21 (stereo not drawn) [Compound P-55, 6-(3,5-difluoroanilino)-3-methoxy-N-[5-(trifluoromethyl)indan-1-yl]pyridine-2-carboxamide]
≥ 80%: pest or weed control at 200 ppm [1] | inhibition at 20 ppm [2] | pest or weed control at 200 ppm [3] | inhibition at 20 ppm [4] | pest or weed control at 200 ppm (Alternaria solani) | pest or weed control at 200 ppm [6] | inhibition at 20 ppm [7] | inhibition at 20 ppm [8]

COc1ccc(Nc2cc(F)cc(F)c2)nc1C(=O)NC1CCc2ccc(C(F)(F)F)cc21 (stereo not drawn) [Compound P-56, 6-(3,5-difluoroanilino)-3-methoxy-N-[6-(trifluoromethyl)indan-1-yl]pyridine-2-carboxamide]
≥ 80%: inhibition at 20 ppm [2] | pest or weed control at 200 ppm [3] | inhibition at 20 ppm [4] | pest or weed control at 200 ppm (Alternaria solani) | pest or weed control at 200 ppm [6] | inhibition at 20 ppm [7] | inhibition at 20 ppm [8]

COc1ccc(Nc2cc(F)cc(F)c2)nc1C(=O)NCc1ccc(Oc2ccccc2)cc1 [Compound P-57, 6-(3,5-difluoroanilino)-3-methoxy-N-[(4-phenoxyphenyl)methyl]pyridine-2-carboxamide]
≥ 80%: pest or weed control at 200 ppm [1] | inhibition at 20 ppm [2] | pest or weed control at 200 ppm [3] | inhibition at 20 ppm [4] | pest or weed control at 200 ppm [5] | pest or weed control at 200 ppm [6] | inhibition at 20 ppm [7] | inhibition at 20 ppm [8] | pest or weed control at 200 ppm (Pyrenophora teres)

COc1ccc(Nc2cc(F)cc(F)c2)nc1C(=O)NCC1(C(F)(F)F)CC1 [Compound P-62, 6-(3,5-difluoroanilino)-3-methoxy-N-[[1-(trifluoromethyl)cyclopropyl]methyl]pyridine-2-carboxamide]
≥ 80%: pest or weed control at 200 ppm [1] | inhibition at 20 ppm [2] | pest or weed control at 200 ppm [3] | inhibition at 20 ppm [4] | pest or weed control at 200 ppm [5] | pest or weed control at 200 ppm (Alternaria solani) | pest or weed control at 200 ppm [6] | inhibition at 20 ppm [7] | inhibition at 20 ppm [8] | pest or weed control at 200 ppm (Pyrenophora teres)

CCOc1ccc(Nc2cc(F)cc(F)c2)nc1C(=O)NC(C)(C)C [Compound P-94, N-tert-butyl-6-(3,5-difluoroanilino)-3-ethoxy-pyridine-2-carboxamide]
≥ 80%: pest or weed control at 200 ppm [1] | inhibition at 20 ppm [2] | inhibition at 20 ppm [4] | pest or weed control at 200 ppm [5] | pest or weed control at 200 ppm (Alternaria solani) | pest or weed control at 200 ppm [6] | inhibition at 20 ppm [7] | inhibition at 20 ppm [8] | pest or weed control at 200 ppm (Pyrenophora teres)
